{"source": "ChEMBL document CHEMBL3797052", "about": "(Eur J Med Chem, 2016)"}
{"test_system": "T47D", "assay": "Antiproliferative activity against human T47D cells assessed as growth inhibition after 48 hrs by sulforhodamine B assay", "type": "functional", "conditions": "read-out: LC50 (the source's name)", "units": {"CC50": "µM"}}
{"smiles": "CNC(=O)c1cc(Oc2ccc3nc(NC(=O)Nc4ccc(Cl)c(C(F)(F)F)c4)sc3c2)ccn1", "CC50": "> 100"}
{"test_system": "A549", "assay": "Antiproliferative activity against human A549/ATCC cells assessed as cell growth at 10^-8 M after 48 hrs by sulforhodamine B assay", "type": "functional", "conditions": "A549, 48 h, read-out: Activity", "units": {"growth at 0.01 µM": "%"}}
{"smiles": "CNC(=O)c1cc(Oc2ccc3nc(NC(=O)Nc4ccc(Cl)c(C(F)(F)F)c4)sc3c2)ccn1", "growth at 0.01 µM": 104}
{"test_system": "not listed separately", "assay": "Antiproliferative activity against human HOP62 cells assessed as cell growth at 10^-6 M after 48 hrs by sulforhodamine B assay", "type": "functional", "conditions": "HOP-62, 48 h, read-out: Activity", "units": {"growth at 1 µM": "%"}}
{"smiles": "CNC(=O)c1cc(Oc2ccc3nc(NC(=O)Nc4ccc(Cl)c(C(F)(F)F)c4)sc3c2)ccn1", "growth at 1 µM": 87}
{"test_system": "U-251", "assay": "Antiproliferative activity against human U251 cells assessed as cell growth at 10^-6 M after 48 hrs by sulforhodamine B assay", "type": "functional", "conditions": "U-251, 48 h, read-out: Activity", "units": {"growth at 1 µM": "%"}}
{"smiles": "CNC(=O)c1cc(Oc2ccc3nc(NC(=O)Nc4ccc(Cl)c(C(F)(F)F)c4)sc3c2)ccn1", "growth at 1 µM": 89}
{"test_system": "not listed separately", "assay": "Antiproliferative activity against human LOXIMVI cells assessed as cell growth at 10^-6 M after 48 hrs by sulforhodamine B assay", "type": "functional", "conditions": "LOX IMVI, read-out: Activity", "units": {"growth at 1 µM": "%"}}
{"smiles": "CNC(=O)c1cc(Oc2ccc3nc(NC(=O)Nc4ccc(Cl)c(C(F)(F)F)c4)sc3c2)ccn1", "growth at 1 µM": 87}
{"test_system": "A549", "assay": "Antiproliferative activity against human A549/ATCC cells assessed as cell growth at 10^-4 M after 48 hrs by sulforhodamine B assay", "type": "functional", "conditions": "A549, 48 h, read-out: Activity", "units": {"growth at 100 µM": "%"}}
{"smiles": "CNC(=O)c1cc(Oc2ccc3nc(NC(=O)Nc4ccc(Cl)c(C(F)(F)F)c4)sc3c2)ccn1", "growth at 100 µM": 9}
{"test_system": "HT-29", "assay": "Antiproliferative activity against human HT-29 cells assessed as cell growth at 10^-4 M after 48 hrs by sulforhodamine B assay", "type": "functional", "conditions": "HT-29, 48 h, read-out: Activity", "units": {"growth at 100 µM": "%"}}
{"smiles": "CNC(=O)c1cc(Oc2ccc3nc(NC(=O)Nc4ccc(Cl)c(C(F)(F)F)c4)sc3c2)ccn1", "growth at 100 µM": 68}
{"test_system": "SK-MEL-28", "assay": "Antiproliferative activity against human SK-MEL-28 cells assessed as cell growth at 10^-8 M after 48 hrs by sulforhodamine B assay", "type": "functional", "conditions": "SK-MEL-28, 48 h, read-out: Activity", "units": {"growth at 0.01 µM": "%"}}
{"smiles": "CNC(=O)c1cc(Oc2ccc3nc(NC(=O)Nc4ccc(Cl)c(C(F)(F)F)c4)sc3c2)ccn1", "growth at 0.01 µM": 92}
{"test_system": "not listed separately", "assay": "Antiproliferative activity against human UACC257 cells assessed as cell growth at 10^-8 M after 48 hrs by sulforhodamine B assay", "type": "functional", "conditions": "UACC-257, 48 h, read-out: Activity", "units": {"growth at 0.01 µM": "%"}}
{"smiles": "CNC(=O)c1cc(Oc2ccc3nc(NC(=O)Nc4ccc(Cl)c(C(F)(F)F)c4)sc3c2)ccn1", "growth at 0.01 µM": 102}
{"test_system": "not listed separately", "assay": "Antiproliferative activity against human OVCAR4 cells assessed as cell growth at 10^-8 M after 48 hrs by sulforhodamine B assay", "type": "functional", "conditions": "OVCAR-4, 48 h, read-out: Activity", "units": {"growth at 0.01 µM": "%"}}
{"smiles": "CNC(=O)c1cc(Oc2ccc3nc(NC(=O)Nc4ccc(Cl)c(C(F)(F)F)c4)sc3c2)ccn1", "growth at 0.01 µM": 93}
{"test_system": "not listed separately", "assay": "Antiproliferative activity against human OVCAR8 cells assessed as cell growth at 10^-8 M after 48 hrs by sulforhodamine B assay", "type": "functional", "conditions": "OVCAR-8, 48 h, read-out: Activity", "units": {"growth at 0.01 µM": "%"}}
{"smiles": "CNC(=O)c1cc(Oc2ccc3nc(NC(=O)Nc4ccc(Cl)c(C(F)(F)F)c4)sc3c2)ccn1", "growth at 0.01 µM": 105}
{"test_system": "not listed separately", "assay": "Antiproliferative activity against human NCI-ADR-RES cells assessed as cell growth at 10^-8 M after 48 hrs by sulforhodamine B assay", "type": "functional", "conditions": "read-out: Activity", "units": {"growth at 0.01 µM": "%"}}
{"smiles": "CNC(=O)c1cc(Oc2ccc3nc(NC(=O)Nc4ccc(Cl)c(C(F)(F)F)c4)sc3c2)ccn1", "growth at 0.01 µM": 110}
{"test_system": "not listed separately", "assay": "Antiproliferative activity against human Caki1 cells assessed as cell growth at 10^-8 M after 48 hrs by sulforhodamine B assay", "type": "functional", "conditions": "CAKI-1, 48 h, read-out: Activity", "units": {"growth at 0.01 µM": "%"}}
{"smiles": "CNC(=O)c1cc(Oc2ccc3nc(NC(=O)Nc4ccc(Cl)c(C(F)(F)F)c4)sc3c2)ccn1", "growth at 0.01 µM": 87}
{"test_system": "MDA-MB-435", "assay": "Antiproliferative activity against human MDA-MB-435 cells assessed as cell growth at 10^-6 M after 48 hrs by sulforhodamine B assay", "type": "functional", "conditions": "MDA-MB-435, 48 h, read-out: Activity", "units": {"growth at 1 µM": "%"}}
{"smiles": "CNC(=O)c1cc(Oc2ccc3nc(NC(=O)Nc4ccc(Cl)c(C(F)(F)F)c4)sc3c2)ccn1", "growth at 1 µM": 83}
{"test_system": "not listed separately", "assay": "Antiproliferative activity against human UACC257 cells assessed as cell growth at 10^-6 M after 48 hrs by sulforhodamine B assay", "type": "functional", "conditions": "UACC-257, 48 h, read-out: Activity", "units": {"growth at 1 µM": "%"}}
{"smiles": "CNC(=O)c1cc(Oc2ccc3nc(NC(=O)Nc4ccc(Cl)c(C(F)(F)F)c4)sc3c2)ccn1", "growth at 1 µM": 90}
{"test_system": "not listed separately", "assay": "Antiproliferative activity against human DU145 cells assessed as cell growth at 10^-6 M after 48 hrs by sulforhodamine B assay", "type": "functional", "conditions": "DU-145, 48 h, read-out: Activity", "units": {"growth at 1 µM": "%"}}
{"smiles": "CNC(=O)c1cc(Oc2ccc3nc(NC(=O)Nc4ccc(Cl)c(C(F)(F)F)c4)sc3c2)ccn1", "growth at 1 µM": 82}
{"test_system": "M14", "assay": "Antiproliferative activity against human M14 cells assessed as cell growth at 10^-4 M after 48 hrs by sulforhodamine B assay", "type": "functional", "conditions": "M14, 48 h, read-out: Activity", "units": {"growth at 100 µM": "%"}}
{"smiles": "CNC(=O)c1cc(Oc2ccc3nc(NC(=O)Nc4ccc(Cl)c(C(F)(F)F)c4)sc3c2)ccn1", "growth at 100 µM": 15}
{"test_system": "SK-MEL-2", "assay": "Antiproliferative activity against human SK-MEL-2 cells assessed as cell growth at 10^-4 M after 48 hrs by sulforhodamine B assay", "type": "functional", "conditions": "SK-MEL-2, 48 h, read-out: Activity", "units": {"growth at 100 µM": "%"}}
{"smiles": "CNC(=O)c1cc(Oc2ccc3nc(NC(=O)Nc4ccc(Cl)c(C(F)(F)F)c4)sc3c2)ccn1", "growth at 100 µM": -18}
{"test_system": "not listed separately", "assay": "Antiproliferative activity against human SKOV3 cells assessed as cell growth at 10^-4 M after 48 hrs by sulforhodamine B assay", "type": "functional", "conditions": "SK-OV-3, 48 h, read-out: Activity", "units": {"growth at 100 µM": "%"}}
{"smiles": "CNC(=O)c1cc(Oc2ccc3nc(NC(=O)Nc4ccc(Cl)c(C(F)(F)F)c4)sc3c2)ccn1", "growth at 100 µM": -68}
{"test_system": "not listed separately", "assay": "Antiproliferative activity against human Caki1 cells assessed as cell growth at 10^-4 M after 48 hrs by sulforhodamine B assay", "type": "functional", "conditions": "CAKI-1, 48 h, read-out: Activity", "units": {"growth at 100 µM": "%"}}
{"smiles": "CNC(=O)c1cc(Oc2ccc3nc(NC(=O)Nc4ccc(Cl)c(C(F)(F)F)c4)sc3c2)ccn1", "growth at 100 µM": 17}
{"test_system": "not listed separately", "assay": "Antiproliferative activity against human RXF393 cells assessed as cell growth at 10^-4 M after 48 hrs by sulforhodamine B assay", "type": "functional", "conditions": "RXF 393, 48 h, read-out: Activity", "units": {"growth at 100 µM": "%"}}
{"smiles": "CNC(=O)c1cc(Oc2ccc3nc(NC(=O)Nc4ccc(Cl)c(C(F)(F)F)c4)sc3c2)ccn1", "growth at 100 µM": -78}
{"test_system": "not listed separately", "assay": "Antiproliferative activity against human UO31 cells assessed as cell growth at 10^-4 M after 48 hrs by sulforhodamine B assay", "type": "functional", "conditions": "UO-31, 48 h, read-out: Activity", "units": {"growth at 100 µM": "%"}}
{"smiles": "CNC(=O)c1cc(Oc2ccc3nc(NC(=O)Nc4ccc(Cl)c(C(F)(F)F)c4)sc3c2)ccn1", "growth at 100 µM": 28}
{"test_system": "not listed separately", "assay": "Antiproliferative activity against human DU145 cells assessed as cell growth at 10^-4 M after 48 hrs by sulforhodamine B assay", "type": "functional", "conditions": "DU-145, 48 h, read-out: Activity", "units": {"growth at 100 µM": "%"}}
{"smiles": "CNC(=O)c1cc(Oc2ccc3nc(NC(=O)Nc4ccc(Cl)c(C(F)(F)F)c4)sc3c2)ccn1", "growth at 100 µM": 17}
